Values quoted from earlier work, collected in patent US7495029B2, “Prodrugs of (2R)-2-propyloctanoic acid for the treatment of stroke” (Merck & Co., Inc, priority 2004, dated 2009).

Legend:
[1] = test system: gerbils subjected to a transient global ischemia event; conditions: Jalil et al, Brain Research 2002
mice = conditions: Tunctan et al, Pharmacological Res 2003
[2] = test system: vascular endothelial cell; conditions: in vitro; Kogure et al, Life Sciences 2002
rat stroke models = conditions: Kogure et al, Life Sciences 2002
lipid peroxidation = conditions: in vitro; Kogure et al, Life Sciences 2002

Row | Molecule | neuroprotection against hippocampal damage [1] | endotoxin-induced mortality (mice) | vascular endothelial cell damage [2] | development of cerebral edema, cerebral infarction, neurological symptoms and delayed neuronal death (rat stroke models) | lipid peroxidation (lipid peroxidation)
1 | CC1(C)OC(=O)C(c2cccc(F)c2)=C1c1ccc(S(C)(=O)=O)cc1 [DFU] | neuroprotective against hippocampal damage | dose dependently reduce endotoxin-induced mortality |  |  | 
2 | Edaravone |  |  | inhibit | inhibit the development of cerebral edema, cerebral infarction, neurological symptoms and delayed neuronal death | inhibit lipid peroxidation
